Here are results for twelve molecules from PMC11721293 (JCI Insight, 2025).

Molecules are shown by their SMILES. “And” between values parts separate entries of the source, which are not always exact repeats. Equal entries are not always repeated. Where two headings read alike, the source gives them in different places. Bounds are passed on as bounds.

By EC50 is commonly meant the concentration giving half of the maximal effect.

The subject of one data set is lysosomal compartment. Nature of the data set: LysoTracker staining of VeroTA6 cells.
The subject of data set [1] is SARS-CoV-2-nLUC. Kind of data set: microbe, parasite or virus in culture. Type of data set: cell-based. As to conditions: for EC50: Severe acute respiratory syndrome coronavirus 2, Vero C1008, 24 h, VeroE6, 24 h, Fig 1G, Fig 5B, read-out: EC50.
The subject of the next data set is SARS-CoV-2. It counts as cell-based. Details: TOA: unit not given here.
In data set [2] the test system is FTase (HDJ2 farnesylation). Kind of data set: HDJ2 electrophoretic mobility shift (Western blot). It counts as cell-based. As to conditions: 24 h treatment. A general note: In EMSA bound probe runs differently from free probe, usually more slowly.
The next data set in a line: in vitro. The note with it: African green monkey.
The subject of data set [3] is VSV-SARS-CoV-2-S pseudovirus. Nature of the data set: microbe, parasite or virus in culture. Type of data set: cell-based.
For another data set, the system named is Huh7 cells. As to conditions: initial screening.
In a further data set the test system is HEK293A2T2 cells. The note with it: initial screening.
Data set [4] deals with SARS-CoV-2-nLUC. Type of data set: cell-based. The note with it: Nirmatrelvir 5 uM, Lonafarnib 0 uM.
In data set [5] the test system is SARS-CoV-2-nLUC. It counts as cell-based.
Data set [6] relates to SARS-CoV-2 strain USA-WA1/2020. It counts as in vivo, mouse. As to conditions: mouse, in vivo.
The test system of data set [7] is SARS-CoV-2 strain USA-WA1/2020. It counts as in vivo, mouse. As to conditions: mouse, in vivo. This is another data set of the same source.
The target of a further data set is viral RdRp (Severe acute respiratory syndrome coronavirus 2, UniProt P0DTD1). Nature of the data set: In vitro RdRp activity assay (RNA extension). Type of data set: biochemical, SARS-CoV-2. As to conditions: LNF 0.1, 1 and 10 μM; TEMPOL 100 μM.

Protocol for lysosomal compartment: (A) VeroTA6 cells were seeded
post treatment, the cells were stained with lysotracker (Thermofisher, L7528) and visualized under
the microscope (left). The fluorescence intensity was captured and quantified for each treatment
B), the significance was calculated using one-way ANOVA with Dunnett’s test with multiple
comparison to the DMSO control, and the P values are depicted as ns for P>0.05, ** for P <0.01,

For `CCN(CC)CCCC(C)Nc1ccnc2cc(Cl)ccc12` (centres unmarked) [CQ, Chloroquine], in the data set on lysosomal compartment (VeroTA6, 10 μM, 30 min), the “LysoTracker fluorescence intensity” value was “significant reduction in fluorescence intensity”. In addition, the Lysotracker with lysosomal compartment (sheet S5A, individual measurements) was 560.723 and 174.035 and 160.899 and 432.593 and 438.73 and 246.495 and 247.855 and 602.458 and 376.298 and 321.5 and 378.198 and 326.501 and 374.374 and 217.144 and 290.704 and 270.841 and 377.374 and 275.759 and 524.267 and 701.544 and 422.374.
With `COC(=O)[C@H](CCSC)NC(=O)c1ccc(NC[C@@H](N)CS)cc1-c1ccccc1` [FTI-277], the Replication in the data set on SARS-CoV-2-nLUC [1] (FTI-277, log concentration 0.670941) is 89.119 and 77.5271 and 84.1138 and 103.187; in the data set on SARS-CoV-2-nLUC [1] (FTI-277, log concentration 1.273), 92.4526 and 80.5819 and 108.059 and 113.995; in the data set on SARS-CoV-2-nLUC [1] (FTI-277, log concentration 1.87506), 83.8498 and 84.554 and 94.5905 and 116.747; in the data set with SARS-CoV-2-nLUC [1] (FTI-277, log concentration -0.232149), 89.4553 and 85.664 and 88.5087 and 105.35. Moreover, in the data set on SARS-CoV-2-nLUC [1], the EC50 worked out at 110 µM. In addition, the “time-of-addition result” value in the data set with SARS-CoV-2 is listed as “modest effect on the early stage of infection, while the efficacy was much higher in the late stage”. Also, the TOA with SARS-CoV-2 (treatment window (0,24)) is 1.616 and 2.237 and 1.147 and 1.155 and 1.238 and 1.196 and 1.435; in the data set with SARS-CoV-2 (treatment window (2,4)), 73.8837 and 74.2661 and 52.3189 and 51.5089 and 53.0507 and 54.4857 and 76.2725 and 76.8029; with SARS-CoV-2 (treatment window (-2,0)), 151.258 and 149.655 and 121.084 and 123.07 and 140.174 and 141.115 and 96.719 and 94.1082; in the data set with SARS-CoV-2 (treatment window (-2,2)) it was 54.1321 and 53.7538 and 48.4664 and 48.121 and 49.0338 and 47.603 and 41.7688 and 40.1735. Also, the “anti-FTase activity, HDJ2 shift” value in data set [2] was “weaker anti-FTase activity”. In “in vitro”, this molecule had a CC50 at 24 h of 220 µM.
As for `CN1CCC(N(Cc2cccs2)c2ccccc2)CC1` [NCGC00183847], the Max % in data set [3] was 64.0% and 54.6%. Also, the EC50 in data set [3] (read-out: EC50) is 11.4 µM and 18.4 µM. The CC50 with Huh7 cells and with HEK293A2T2 cells was more than 30 µM each time.
For `Clc1ccc(C(c2ccccc2)N2CCNCC2)cc1` (centres unmarked) [NCGC00245963], in data set [3], the Max % was 99.5%. For the same molecule, the CC50 in the data set with Huh7 cells and in the data set with HEK293A2T2 cells was more than 30 µM each time.
As for `CN1CCN([C@H](c2ccccc2)c2ccc(Cl)cc2)CC1` [NCGC00343774], the Max % in data set [3] amounted to 66.4%. Further, the values for the CC50 with Huh7 cells and with HEK293A2T2 cells were 14.4 µM and more than 30 µM, respectively.
With `CN1CCN([C@@H](c2ccccc2)c2ccc(Cl)cc2)CC1` [NCGC00343775], the Max % in [3] was 77.3%. Also, the CC50 was 11.2 µM in the data set with Huh7 cells and more than 30 µM in the data set with HEK293A2T2 cells.
Consider `Clc1ccc(C(c2ccccc2)N2CCNCC2)cc1` (centres unmarked) [NCGC00345880], for which the Max % in [3] was 99.6% and 75.2%. Moreover, the values for the CC50 in the data set on Huh7 cells and in the data set on HEK293A2T2 cells were 13.4 µM and more than 30 µM, respectively.
Molecule `CCN1CCN(C(c2ccc(Cl)cc2)c2ccc(Cl)cc2)CC1` [NCGC00351414] showed a Max % in data set [3] of 83.6%. Also, the CC50 in the data set on Huh7 cells and with HEK293A2T2 cells was more than 30 µM each time.
Regarding `CC(C)(C)[C@H](NC(=O)C(F)(F)F)C(=O)N1C[C@H]2[C@@H]([C@H]1C(=O)N[C@H](C#N)C[C@@H]1CCNC1=O)C2(C)C` [NRTV, nirmatrelvir], the Response is 21.0635 and 36.2768 and 23.2893 in the data set on SARS-CoV-2-nLUC [4]; 96.7462 and 94.1773 and 94.981 in the data set with SARS-CoV-2-nLUC [5]; 50.9786 and 35.7701 and 31.2174 in the data set with SARS-CoV-2-nLUC [5] (Lonafarnib 0 uM, Nirmatrelvir 0.3125 uM, sheet S3B, replicates); 89.9445 and 77.1784 and 77.0959 with SARS-CoV-2-nLUC [5] (Lonafarnib 0 uM, Nirmatrelvir 0.625 uM, sheet S3B, replicates); 97.3124 and 96.7918 and 96.5986 in the data set with SARS-CoV-2-nLUC [5] (Lonafarnib 0 uM, Nirmatrelvir 2.5 uM, sheet S3B, replicates); 97.4859 and 97.2147 and 96.9835 in the data set on SARS-CoV-2-nLUC [5] (Lonafarnib 0 uM, Nirmatrelvir 5 uM, sheet S3B, replicates).
As to `CCC(CC)COC(=O)[C@H](C)N[P@](=O)(OC[C@H]1O[C@@](C#N)(c2ccc3c(N)ncnn23)[C@H](O)[C@@H]1O)Oc1ccccc1` [RDV, Remdesivir], the “time-of-addition result” value in the data set on SARS-CoV-2 is “minimal effect when added for a limited duration at early time points, but showed maximum efficacy when it was added later after infection”. In data set [6], the “lung viral titer” value was “did not show much reduction in viral titers”. Also, the “composite clinical score” value in [7] is listed as “much improved disease parameters”.
As for `CC1(C)CC(O)CC(C)(C)N1[O]` [TEMPOL], the “polymerase activity, primer extension” value on viral RdRp was “inhibited”.
As to `Cn1cncc1[C@@](N)(c1ccc(Cl)cc1)c1ccc2c(c1)c(-c1cccc(Cl)c1)cc(=O)n2C` [Tipifarnib, tipifarnib], in the data set on SARS-CoV-2-nLUC [1], the EC50 was 8.86 µM. In addition, the Replication is 115.708 and 115.2 and 116.296 and 113.383 in the data set on SARS-CoV-2-nLUC [1] (Tipifarnib, log concentration 0.273001); 62.3306 and 62.0856 and 61.494 and 61.1331 in the data set on SARS-CoV-2-nLUC [1] (Tipifarnib, log concentration 0.875061); 101.05 and 102.091 and 101.412 and 103.944 with SARS-CoV-2-nLUC [1] (Tipifarnib, log concentration -0.630089); 100.484 and 100.389 and 101.92 and 99.313 in the data set with SARS-CoV-2-nLUC [1] (Tipifarnib, log concentration -1.23215). The “time-of-addition result” value in the data set on SARS-CoV-2 is “modest effect on the early stage of infection, while the efficacy was much higher in the late stage”. For the same molecule, the TOA is 76.7425 and 75.484 and 113.203 and 99.7613 and 81.3458 and 84.3089 and 102.68 and 108.689 in the data set on SARS-CoV-2 (treatment window (0,2)); 92.86 and 92.659 and 88.2304 and 87.5224 and 122.157 and 114.273 and 92.7843 and 93.347 in the data set on SARS-CoV-2 (treatment window (-2,0)); 31.6226 and 35.7452 and 33.0851 and 30.5839 and 34.705 and 34.7924 and 25.2067 and 23.5518 in the data set on SARS-CoV-2 (treatment window (-2,2)). The molecule further gave a CC50 at 24 h in “in vitro” of more than 30 µM.
